Results on 33 molecules are retold here after patent publication US20090105305A1, “Therapeutic Agents - 550” (AstraZeneca AB, priority 2006, published 2009).

What is called inhibition is the change of the read-out against control, counted positive when it falls. A word on the IC50: it is the point on the concentration scale where inhibition reaches its midpoint. A higher IC50 goes with lower potency.

For this test, the target named is T1, human Fatty Acid Synthase (Homo sapiens, UniProt P49327).
T1 construct: made in house
T1 sequence (P49327 whole entry): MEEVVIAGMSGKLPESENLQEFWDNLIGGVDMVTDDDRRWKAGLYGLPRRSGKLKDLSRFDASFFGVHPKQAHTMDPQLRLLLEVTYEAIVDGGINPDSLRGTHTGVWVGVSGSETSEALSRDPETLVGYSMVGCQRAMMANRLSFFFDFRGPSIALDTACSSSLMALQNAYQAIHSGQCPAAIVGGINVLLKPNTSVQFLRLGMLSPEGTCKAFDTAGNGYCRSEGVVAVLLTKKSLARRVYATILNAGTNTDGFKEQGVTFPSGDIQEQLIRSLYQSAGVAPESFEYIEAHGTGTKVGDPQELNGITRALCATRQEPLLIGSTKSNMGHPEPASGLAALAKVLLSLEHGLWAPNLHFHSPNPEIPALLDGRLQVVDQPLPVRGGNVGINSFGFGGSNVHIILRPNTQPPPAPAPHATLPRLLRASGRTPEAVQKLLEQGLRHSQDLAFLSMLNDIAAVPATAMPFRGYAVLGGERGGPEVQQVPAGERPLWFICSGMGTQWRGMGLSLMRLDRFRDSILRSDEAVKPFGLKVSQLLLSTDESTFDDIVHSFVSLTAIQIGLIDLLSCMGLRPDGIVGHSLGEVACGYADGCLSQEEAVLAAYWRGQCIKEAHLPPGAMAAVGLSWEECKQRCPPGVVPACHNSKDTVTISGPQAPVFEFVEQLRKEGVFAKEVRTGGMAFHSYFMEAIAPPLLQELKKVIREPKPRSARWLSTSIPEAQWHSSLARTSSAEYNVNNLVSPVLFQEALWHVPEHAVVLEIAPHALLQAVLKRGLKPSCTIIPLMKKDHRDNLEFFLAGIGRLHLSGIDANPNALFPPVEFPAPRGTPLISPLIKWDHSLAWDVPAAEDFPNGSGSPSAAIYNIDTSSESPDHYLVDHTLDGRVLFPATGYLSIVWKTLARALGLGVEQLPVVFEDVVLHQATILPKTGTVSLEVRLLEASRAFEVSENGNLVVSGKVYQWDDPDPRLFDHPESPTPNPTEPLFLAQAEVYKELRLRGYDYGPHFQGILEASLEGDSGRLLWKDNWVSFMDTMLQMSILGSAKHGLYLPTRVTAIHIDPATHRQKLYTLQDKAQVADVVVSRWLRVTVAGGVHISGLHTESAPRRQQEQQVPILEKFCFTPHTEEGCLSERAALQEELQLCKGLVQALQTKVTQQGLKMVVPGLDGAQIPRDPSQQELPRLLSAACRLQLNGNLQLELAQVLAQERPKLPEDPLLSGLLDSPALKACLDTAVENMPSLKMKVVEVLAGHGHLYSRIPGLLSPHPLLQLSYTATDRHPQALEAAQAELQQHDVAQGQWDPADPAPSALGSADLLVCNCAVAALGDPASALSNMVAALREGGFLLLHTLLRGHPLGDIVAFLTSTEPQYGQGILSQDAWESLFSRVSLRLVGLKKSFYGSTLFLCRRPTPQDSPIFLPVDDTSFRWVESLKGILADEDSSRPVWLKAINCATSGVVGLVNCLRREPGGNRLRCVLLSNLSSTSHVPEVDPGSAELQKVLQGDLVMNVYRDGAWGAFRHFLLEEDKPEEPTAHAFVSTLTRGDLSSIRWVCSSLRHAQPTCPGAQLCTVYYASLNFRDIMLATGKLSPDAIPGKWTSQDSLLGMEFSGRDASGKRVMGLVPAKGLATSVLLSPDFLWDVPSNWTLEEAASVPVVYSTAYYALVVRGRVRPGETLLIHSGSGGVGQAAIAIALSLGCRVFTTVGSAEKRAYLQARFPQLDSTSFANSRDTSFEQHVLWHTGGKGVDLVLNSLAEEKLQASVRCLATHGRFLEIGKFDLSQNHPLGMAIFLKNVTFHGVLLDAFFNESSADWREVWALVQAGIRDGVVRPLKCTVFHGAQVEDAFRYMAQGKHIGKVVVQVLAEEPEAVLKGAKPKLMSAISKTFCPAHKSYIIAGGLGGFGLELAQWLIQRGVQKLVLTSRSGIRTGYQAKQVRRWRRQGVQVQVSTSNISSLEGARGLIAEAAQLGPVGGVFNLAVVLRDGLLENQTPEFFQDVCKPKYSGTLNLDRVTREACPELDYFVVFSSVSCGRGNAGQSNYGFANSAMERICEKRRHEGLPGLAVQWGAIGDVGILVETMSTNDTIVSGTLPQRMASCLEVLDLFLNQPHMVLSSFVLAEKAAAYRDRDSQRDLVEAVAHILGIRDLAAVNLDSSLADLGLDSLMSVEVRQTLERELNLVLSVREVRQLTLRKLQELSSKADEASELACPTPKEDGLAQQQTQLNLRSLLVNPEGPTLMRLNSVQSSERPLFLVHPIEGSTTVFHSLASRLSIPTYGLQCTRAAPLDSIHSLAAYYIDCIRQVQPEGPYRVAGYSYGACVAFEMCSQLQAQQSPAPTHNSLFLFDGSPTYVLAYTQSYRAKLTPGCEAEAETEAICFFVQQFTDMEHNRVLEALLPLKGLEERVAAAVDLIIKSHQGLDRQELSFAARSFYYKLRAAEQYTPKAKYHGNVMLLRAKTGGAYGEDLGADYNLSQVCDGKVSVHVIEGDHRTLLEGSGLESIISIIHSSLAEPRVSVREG
In words: Human FAS enzyme assay (decrease in NADPH fluorescence). The format is biochemical. As to conditions: for inhibition at 100 µM: % inhibition at a concentration of 100 micromolar; for IC50s in the range of about 0.001 μM to about 30 μM: compounds excluded from the claims by proviso. A digest of the protocol:
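Readout: decrease in NADPH fluorescence (340 nm ex, 460 nm em) after 60 min at RT, background-subtracted against a read taken before substrate. Substrate mix contained 500 μM malonyl-CoA and 150 μM acetyl-CoA. It was added after 15 min enzyme (0.4 μg in-house human FAS)–compound–NADPH preincubation in Tris pH 7.5 buffer; % inhibition was fitted to IC50.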

In turn, `CCCS(=O)(=O)NCc1ccc(C2CCN(C(=O)c3ccc(C)c(NS(C)(=O)=O)c3)CC2)cc1` [Example 237, N-[[4-[1-(3-methanesulfonamido-4-methylbenzoyl)piperidin-4-yl]phenyl]methyl]propane-1-sulfonamide] returned an inhibition at 100 µM of 85.2%.

Take `Cc1ccc(C(=O)N2CCC(c3ccc(OS(C)(=O)=O)cc3)CC2)cc1NS(C)(=O)=O` [Example 185, [4-[1-(3-methanesulfonamido-4-methylbenzoyl)piperidin-4-yl]phenyl]methanesulfonate]: the inhibition at 100 µM worked out at 80%.

`CC(=O)N1CCC(S(=O)(=O)Nc2cc(C(=O)N3CCC(c4ccc(C#N)cc4)CC3)ccc2C)CC1` [Example 118, 1-acetyl-N-[5-[4-(4-cyanophenyl)piperidine-1-carbonyl]-2-methyl-phenyl]piperidine-4-sulfonamide] returned an inhibition at 100 µM of 85%.

`Cc1ccc(C(=O)N2CCC(c3ccc(-c4ncon4)cc3)CC2)cc1NS(C)(=O)=O` [Example 171, N-[2-methyl-5-[4-[4-(1,2,4-oxadiazol-3-yl)phenyl]piperidine-1-carbonyl]phenyl]methanesulfonamide] had an inhibition at 100 µM of 85%.

As for `Cc1ccc(C(=O)N2CCC(c3ccc(C#N)cc3)CC2)cc1NS(=O)(=O)CS(C)(=O)=O` [Example 195, N-[5-[4-(4-cyanophenyl)piperidine-1-carbonyl]-2-methylphenyl]-1-methylsulfonyl-methanesulfonamide], testing at 100 µM gave an inhibition of 72%.

Consider `Cc1ccc(C(=O)N2CCC(c3ccc(C(N)=NO)cc3)CC2)cc1NS(C)(=O)=O` [Example 214, N′-hydroxy-4-[1-(3-methanesulfonamido-4-methylbenzoyl)piperidin-4-yl]benzene-carboximidamide], for which testing at 100 µM gave an inhibition of 85%.

The molecule `CNC(=O)CCc1ccc(C2CCN(C(=O)c3ccc(C)c(NS(C)(=O)=O)c3)CC2)cc1` [Example 248, 3-[4-[1-(3-methanesulfonamido-4-methylbenzoyl)piperidin-4-yl]phenyl]-N-methylpropanamide] displayed an IC50 (unit inferred) of 0.405 µM.

For the molecule `CSCc1ccc(C(=O)N2CCC(c3ccc(C#N)cc3)CC2)cc1NS(C)(=O)=O` [Example 176, N-[5-[4-(4-cyanophenyl)piperidine-1-carbonyl]-2-(methylsulfanylmethyl)phenyl]methanesulfonamide], the inhibition at 100 µM is 78%.

On to `C#Cc1ccc(C2CCN(C(=O)c3ccc(C)c(NS(C)(=O)=O)c3)CC2)cc1` [Example 172, N-[5-[4-(4-ethynylphenyl)piperidine-1-carbonyl]-2-methylphenyl]methanesulfonamide], for which the inhibition at 100 µM is 85%.

As for `Cc1ccc(C(=O)N2CCC(c3ccc(C#N)cc3)CC2)cc1NS(=O)(=O)c1ccccc1C(=O)N1CCOCC1` [Example 111, N-[5-[4-(4-cyanophenyl)piperidine-1-carbonyl]-2-methyl-phenyl]-2-(morpholine-4-carbonyl)benzenesulfonamide], the inhibition at 100 µM turned out to be 80%.

For `Cc1ccc(C(=O)N2CCC(c3ccc(C#N)cc3)CC2)cc1NS(=O)(=O)CC(O)CN(C)C` (stereo not drawn) [Example 150, N-[5-[4-(4-cyanophenyl)piperidine-1-carbonyl]-2-methyl-phenyl]-3-dimethylamino-2-hydroxy-propane-1-sulfonamide], the inhibition at 100 µM was found to be 88%.

As for `Cc1ccc(C(=O)N2CCC(O)(c3ccccc3F)CC2)cc1NS(C)(=O)=O` [N-[5-[4-(2-fluorophenyl)-4-hydroxypiperidine-1-carbonyl]-2-methylphenyl]methanesulfonamide], the “IC50s in the range of about 0.001 μM to about 30 μM” value was “do not have IC50s in the range of about 0.001 μM to about 30 μM”.

Molecule `Cc1ccc(C(=O)N2CCC(c3ccc(CO)cc3)CC2)cc1NS(C)(=O)=O` [Example 165, N-[5-[4-[4-(hydroxymethyl)phenyl]piperidine-1-carbonyl]-2-methylphenyl]methanesulfonamide] returned an inhibition at 100 µM of 76%.

For the molecule `C=CS(=O)(=O)Nc1cc(C(=O)N2CCC(c3ccc(C(N)=O)cc3)CC2)ccc1C` [Example 104, 4-[1-[3-(ethenylsulfonylamino)-4-methyl-benzoyl]-4-piperidyl]benzamide], the inhibition at 100 µM stood at 76%.

`Cc1ccc(C(=O)N2CCC(c3ccc(C#N)cc3)CC2)cc1NS(=O)(=O)c1cccc(C(=O)O)c1` [Example 79, 3-[[5-[4-(4-cyanophenyl)piperidine-1-carbonyl]-2-methyl-phenyl]sulfamoyl]benzoic acid] showed an inhibition at 100 µM of 95%.

With `Cc1ccc(C(=O)N2CCC(c3ccc(C#N)cc3)CC2)cc1NS(=O)(=O)CCCN1C(=O)c2ccccc2C1=O` [Example 134, N-[5-[4-(4-cyanophenyl)piperidine-1-carbonyl]-2-methyl-phenyl]-3-(1,3-dioxoisoindol-2-yl)propane-1-sulfonamide], the inhibition at 100 µM came out at 97%.

In turn, `COC(=O)NCc1ccc(C2CCN(C(=O)c3ccc(C)c(NS(C)(=O)=O)c3)CC2)cc1` [Example 239, Methyl N-[[4-[1-(3-methanesulfonamido-4-methylbenzoyl)piperidin-4-yl]phenyl]methyl]carbamate] yielded an inhibition at 100 µM of 89.1%.

Turning to `Cc1ccc(C(=O)N2CCC(c3ccc(-c4ccccn4)cc3)CC2)cc1NS(C)(=O)=O` [Example 173, N-[2-methyl-5-[4-(4-pyridin-2-ylphenyl)piperidine-1-carbonyl]phenyl]methanesulfonamide], the inhibition at 100 µM amounted to 64%.

With `Cc1ccc(C(=O)N2CCC(c3ccc(C#N)cc3)CC2)cc1NS(=O)(=O)CCO` [Example 109, N-[5-[4-(4-cyanophenyl)piperidine-1-carbonyl]-2-methyl-phenyl]-2-hydroxy-ethanesulfonamide], the inhibition at 100 µM came to 94%.

Consider `CCS(=O)(=O)N1CCC(S(=O)(=O)Nc2cc(C(=O)N3CCC(c4ccc(C#N)cc4)CC3)ccc2C)CC1` [Example 122, N-[5-[4-(4-cyanophenyl)piperidine-1-carbonyl]-2-methyl-phenyl]-1-ethylsulfonyl-piperidine-4-sulfonamide], for which the inhibition at 100 µM came to 98%.

In turn, `CC(=O)N1CCC(S(=O)(=O)Nc2cc(C(=O)N3CCC(c4ccc(C#N)cc4)CC3)ccc2C)C1` (stereo not drawn) [Example 153, 1-acetyl-N-[5-[4-(4-cyanophenyl)piperidine-1-carbonyl]-2-methyl-phenyl]pyrrolidine-3-sulfonamide] came in with an inhibition at 100 µM of 97%.

`Cc1ccc(C(=O)N2CCC(c3ccc(C#N)cc3)CC2)cc1NS(=O)(=O)C(F)(F)F` [Example 209, N-[5-[4-(4-cyanophenyl)piperidine-1-carbonyl]-2-methylphenyl]-1,1,1-trifluoromethane-sulfonamide] had an inhibition at 100 µM of 76%.

On to `CCCCS(=O)(=O)Nc1cc(C(=O)N2CCC(c3ccc(C#N)cc3)CC2)ccc1C` [Example 12, N-[5-[4-(4-cyanophenyl)piperidine-1-carbonyl]-2-methyl-phenyl]butane-1-sulfonamide], for which testing at 100 µM gave an inhibition of 90%.

Regarding `Cc1ccc(C(=O)N2CCC(c3ccc(C#N)cc3)CC2)cc1NS(=O)(=O)CCCCl` [Example 9, 3-chloro-N-[5-[4-(4-cyanophenyl)piperidine-1-carbonyl]-2-methyl-phenyl]propane-1-sulfonamide], the inhibition at 100 µM stood at 95%.

Consider `CCCS(=O)(=O)Nc1ccc(C)c(C(=O)N2CCC(c3ccc(C#N)cc3)CC2)c1` [Example 33, N-[3-[4-(4-cyanophenyl)piperidine-1-carbonyl]-4-methyl-phenyl]propane-1-sulfonamide], for which the inhibition at 100 µM is 91%.

`CCCS(=O)(=O)Nc1cc(C(=O)N2CCC(c3ccc(C#N)cc3)CC2)ccc1C` [Example 5, N-[5-[4-(4-cyanophenyl)piperidine-1-carbonyl]-2-methyl-phenyl]propane-1-sulfonamide] came in with an inhibition at 100 µM of 92%.

`COc1ccc(C2CCN(C(=O)c3ccc(C)c(NS(C)(=O)=O)c3)CC2)cc1` [Example 162, N-[5-[4-(4-methoxyphenyl)piperidine-1-carbonyl]-2-methylphenyl]methanesulfonamide]: 100 µM produced 86% inhibition.

In turn, `N#Cc1ccc(C2CCN(C(=O)c3ccc(F)c(NS(=O)(=O)Cc4ccccc4)c3)CC2)cc1` [Example 194, N-[5-[4-(4-cyanophenyl)piperidine-1-carbonyl]-2-fluorophenyl]-1-phenylmethane-sulfonamide] returned an inhibition at 100 µM of 69%.

In turn, `Cc1ccc(C(=O)N2CCC(c3ccc(C#N)cc3)CC2)cc1NS(=O)(=O)c1ccccc1F` [Example 2, N-[5-[4-(4-cyanophenyl)piperidine-1-carbonyl]-2-methyl-phenyl]-2-fluoro-benzenesulfonamide] gave an inhibition at 100 µM of 82%.

As for `Cc1ccc(C(=O)N2CCC(c3ccc(NS(C)(=O)=O)cc3)CC2)cc1NS(C)(=O)=O` [Example 221, N-[4-[1-(3-methanesulfonamido-4-methylbenzoyl)piperidin-4-yl]phenyl]methane-sulfonamide], the inhibition at 100 µM was found to be 74%.

`Cc1ccc(C(=O)N2CCC(c3ccc(C#N)cc3)CC2)cc1NS(=O)(=O)c1cccc(C#N)c1` [Example 21, 3-cyano-N-[5-[4-(4-cyanophenyl)piperidine-1-carbonyl]-2-methyl-phenyl]benzenesulfonamide] showed an inhibition at 100 µM of 90%.

Turning to `Cc1ccc(C(=O)N2CCC(c3ccc(S(=O)(=O)N4CC[C@@H](O)C4)cc3)CC2)cc1NS(C)(=O)=O` [N-[5-[4-[4-[(3R)-3-hydroxypyrrolidin-1-yl]sulfonylphenyl]piperidine-1-carbonyl]-2-methylphenyl]methanesulfonamide], the “IC50s in the range of about 0.001 μM to about 30 μM” value is “do not have IC50s in the range of about 0.001 μM to about 30 μM”.

`Cc1ccc(NS(=O)(=O)CC(C)C)cc1C(=O)N1CCC(c2ccc(C#N)cc2)CC1` [Example 57, N-[3-[4-(4-cyanophenyl)piperidine-1-carbonyl]-4-methyl-phenyl]-2-methyl-propane-1-sulfonamide] showed an inhibition at 100 µM of 94%.
